The test concerns the target T1, human PLC-β2 (Homo sapiens, UniProt Q00722).
T1 construct: made in house; host or cells: Sf9 cells (Spodoptera frugiperda), recombinant baculovirus
Nature of the test: PLC assay using FlashPlates (96-well, immobilized [3H]PIP2 substrate). Particulars: purified recombinant human PLC-β2 or cytosolic human PLC-β2; hydrolysis of [3H]PIP2. It is filed as biochemical. From the text: The hydrolysis of phosphatidylinositol-4,5-bisphosphate (PIP2) by a specific phospholipase C-β2 (PLC-β2) produces two intracellular messengers, diacylglycerol (DAG) and inositol 1,4,5-trisphosphate (IP3), which mediate the activation of protein kinase C and intracellular Ca^2+ release. A conventional organic solvent extraction method is widely used for PLC assays to isolate IP3 from the substrate PIP2. The conventional PLC-β2 assay, however is terminated by addition of acidified organic solvents and subsequent extraction and phase separation. […] Accordingly, a preferred method to test the compounds of the present invention, was developed utilizing a 96-well plate assay for PLC-β2 using immobilized radiolabeled substrate to quantitatively measure the reduction in the substrate level without a need for organic solvent extraction. The automated PLC-β2 assay described herein provides a convenient method for quantitative measurement of phospholipase C activities in a high throughput fashion. Ninety-six well Phospholipid FlashPlates were coated with 0.2 mL of 50 mM Tris/HCl (pH 7.4), 0.01% Ac-BSA and 50,000 cpm of […] (phosphatidylinositol-4,5-bisphosphate) at 4° C. for 72 h. The wells were aspirated and washed twice with PBS. The reactions were conducted directly in the wells in PLC reaction buffer containing 50 mM Tris/HCl (pH 7.2), 2.75 mM EDTA (pH 7.3), 80 mM KCl, 10 mM LiCl, 0.04% DOC and 2 mM CaCl2 in the absence or presence of the purified recombinant human PLC-β2 (prepared as described hereafter) or cytosolic human PLC-β2 from […]. Reduction of radioactivity was monitored by a Packard TopCount instrument (Packard Instrument Company, Conn., USA). […] The cells were grown in Grace's media supplemented with 10% (v/v) fetal bovine serum, 3.3 g/l yeastolate, 3.3 g/l lactalbumin hydrosylate, glutamine (6.4 mM final), 50 μg/ml gentamicin, and 50 μg/ml kanamycin. Suspension of Sf9 cells (1.0×10^6 cells/ml) were infected with 5 pfu/cell of recombinant baculovirus encoding PLC-β2 and incubated at 27° C. for 72 h. The cells were collected by centrifugation (500×g, 7 min, 4° C.) and disrupted by hypotonic lysis buffer containing 20 mM Tris/HCl, pH 7.4, 5 mM MgCl2, 2 mM EGTA, 200 μM PMSF, 200 μM benzamidine and 1 μM pepstatin A. The lysate was sonicated on ice and the nuclei and unbroken cells removed by centrifigation (500×g, 5 min, 4C.). The supernatant was recovered and clarified by centrifugation (34,000 rpm, 60 min, 4C.). The supernatant was used as a crude cytosolic fraction (Paterson, A., Boyer, J. L., Watts, V. J., Morris, A. J., Price, […]. (1995) Concentration of enzyme-dependent activation of PLC β1 and PLC β2 by Gα11 and βγ subunits. Cellular Signalling 7, 709-720). Crude cytosol prepared from Sf9 cells expressing PLC-β2 was purified initially by chromatography on a 10 ml column of Q-Sepharose FF, equilibrated in buffer A (25 mM HEPES, pH 7.2,2 mM DTT, 2 mM EDTA, 2 mM EGTA, 200 μM PMSF, 200 μM benzamidine, 1 μM pepstatin A containing 10 mM NaCl). The column was washed with 20 ml of equilibration buffer and eluted with a 200-ml gradient of 110-410 mM NaCl in buffer A. The fractions containing PLC activity were pooled and diluted with buffer A. The diluted enzyme was applied to a 4 ml column of heparin-SepharoseCL-6B equilibrated in buffer A and the column washed with 70 ml of buffer A. The column was eluted with 80 ml of gradient of 0-1.0 M NaCl in buffer A, the column eluate collected in 3 ml fractions. […]

In patent US20040235855A1, “Phospholipase C inhibitors for use in treating inflammatory disorders” (priority 2003, published 2004) one finds IC50 data, which are given here for 25 compounds.

Each structure is given as a SMILES string. Bounds are passed on as bounds.

T1 sequence (Q00722 whole entry): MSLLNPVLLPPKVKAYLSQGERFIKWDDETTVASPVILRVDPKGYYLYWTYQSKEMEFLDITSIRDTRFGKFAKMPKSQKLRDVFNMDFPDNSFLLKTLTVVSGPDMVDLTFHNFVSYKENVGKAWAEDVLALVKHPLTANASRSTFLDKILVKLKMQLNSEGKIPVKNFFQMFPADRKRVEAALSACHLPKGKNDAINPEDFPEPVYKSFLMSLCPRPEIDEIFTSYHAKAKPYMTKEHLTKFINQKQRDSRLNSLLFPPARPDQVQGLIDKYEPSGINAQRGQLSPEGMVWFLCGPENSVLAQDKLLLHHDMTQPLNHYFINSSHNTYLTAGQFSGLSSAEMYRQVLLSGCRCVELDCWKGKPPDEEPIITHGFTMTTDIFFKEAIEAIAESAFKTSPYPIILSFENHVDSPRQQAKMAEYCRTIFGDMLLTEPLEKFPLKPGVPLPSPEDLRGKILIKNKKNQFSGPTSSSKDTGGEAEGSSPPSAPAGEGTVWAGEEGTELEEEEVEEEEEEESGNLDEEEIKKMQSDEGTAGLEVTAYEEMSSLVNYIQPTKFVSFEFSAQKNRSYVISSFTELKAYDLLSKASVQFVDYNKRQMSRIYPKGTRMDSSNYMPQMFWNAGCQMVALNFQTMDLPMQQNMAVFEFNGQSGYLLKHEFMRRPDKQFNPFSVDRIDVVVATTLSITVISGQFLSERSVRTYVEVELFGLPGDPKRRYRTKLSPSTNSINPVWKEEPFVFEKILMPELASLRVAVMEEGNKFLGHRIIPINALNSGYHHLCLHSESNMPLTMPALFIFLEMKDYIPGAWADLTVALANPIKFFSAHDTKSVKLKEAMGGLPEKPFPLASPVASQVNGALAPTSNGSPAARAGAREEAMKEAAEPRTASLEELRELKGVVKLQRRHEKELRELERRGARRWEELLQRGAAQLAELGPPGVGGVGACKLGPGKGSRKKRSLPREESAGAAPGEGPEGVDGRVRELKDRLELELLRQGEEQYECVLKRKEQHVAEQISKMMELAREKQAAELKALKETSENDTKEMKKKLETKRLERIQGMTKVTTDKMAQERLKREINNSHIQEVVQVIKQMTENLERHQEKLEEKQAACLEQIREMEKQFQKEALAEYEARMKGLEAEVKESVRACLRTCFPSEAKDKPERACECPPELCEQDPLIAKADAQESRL

As a reminder, the IC50 is the concentration at which inhibition is half-maximal. `COc1ccccc1N1CCN(c2ccc(C(N)=O)cc2NC(=O)Nc2ccccc2)CC1` [Cpd 1, 4-[4-(2-methoxyphenyl)-1-piperazinyl]-3-[[(phenylamino)carbonyl]amino]-benzamide]: the IC50 was found to be 23.4 µM. Regarding `NC(=O)c1ccc(N2CCN(Cc3ccccc3)CC2)c(NC(=O)Nc2ccccc2)c1` [Cpd 2, 3-[[(phenylamino)carbonyl]amino]-4-[4-(phenylmethyl)-1-piperazinyl]-benzamide], the IC50 is above 25 µM. In the case of `NC(=O)c1ccc(N2CCN(C(c3ccc(F)cc3)c3ccc(F)cc3)CC2)c(NC(=O)Nc2ccccc2)c1` [Cpd 3, 4-[4-[bis(4-fluorophenyl)methyl]-1-piperazinyl]-3-[[(phenylamino)carbonyl]amino]-benzamide], the IC50 stood at 1.5 µM. For `NC(=O)c1ccc(N2CCN(C(c3ccc(F)cc3)c3ccc(F)cc3)CC2)c(NC(=O)Nc2ccccc2F)c1` [Cpd 4, 4-[4-[bis(4-fluorophenyl)methyl]-1-piperazinyl]-3-[[[(2-fluorophenyl)amino]carbonyl]amino]-benzamide], the half-maximal inhibitory concentration (IC50) amounted to 2.1 µM.

Consider `NC(=O)c1ccc(N2CCN(C(c3ccccc3)c3ccccc3)CC2)c(NC(=O)Nc2ccc([N+](=O)[O-])cc2)c1` [Cpd 5, 4-[4-(diphenylmethyl)-1-piperazinyl]-3-[[[(4-nitrophenyl)amino]carbonyl]amino]-benzamide], for which the IC50 came out at 9.9 µM. `NC(=O)c1ccc(N2CCN(C(c3ccccc3)c3ccccc3)CC2)c(NC(=O)NCc2ccccc2)c1` [Cpd 6, 4-[4-(diphenylmethyl)-1-piperazinyl]-3-[[[(phenylmethyl)amino]carbonyl]amino]-benzamide]: the IC50 worked out at 9 µM. For `Cc1cc(C)cc(NC(=O)Nc2cc(C(N)=O)ccc2N2CCN(C(c3ccccc3)c3ccccc3)CC2)c1` [Cpd 7, 3-[[[(3,5-dimethylphenyl)amino]carbonyl]amino]-4-[4-(diphenylmethyl)-1-piperazinyl]-benzamide] the value was 5.3 µM; for `NC(=O)c1ccc(N2CCN(C(c3ccccc3)c3ccccc3)CC2)c(NC(=O)Nc2ccccc2)c1` [Cpd 8, 4-[4-(diphenylmethyl)-1-piperazinyl]-3-[[(phenylamino)carbonyl]amino]-benzamide], 1.2 µM; for `NC(=O)c1ccc(N2CCN(C(c3ccccc3)c3ccccc3)CC2)c(NC(=O)NC2CCCCC2)c1` [Cpd 10, 3-[[(cyclohexylamino)carbonyl]amino]-4-[4-(diphenylmethyl)-1-piperazinyl]-benzamide], 14 µM.

Take `C[C@H](NC(=O)Nc1cc(C(N)=O)ccc1N1CCN(C(c2ccccc2)c2ccccc2)CC1)c1ccccc1` [Cpd 11, 4-[4-(diphenylmethyl)-1-piperazinyl]-3-[[[[(1S)-1-phenylethyl]amino]carbonyl]amino]-benzamide]: the IC50 worked out at 8.4 µM.

For `CCCCNC(=O)Nc1cc(C(N)=O)ccc1N1CCN(C(c2ccccc2)c2ccccc2)CC1` [Cpd 12, 3-[[(butylamino)carbonyl]amino]-4-[4-(diphenylmethyl)-1-piperazinyl]-benzamide], the IC50 was 14.5 µM.

For the compound `NC(=O)c1ccc(N2CCN(C(c3ccccc3)c3ccccc3)CC2)c(NC(=O)Nc2ccc(F)cc2)c1` [Cpd 13, 4-[4-(diphenylmethyl)-1-piperazinyl]-3-[[[(4-fluorophenyl)amino]carbonyl]amino]-benzamide], the IC50 worked out at 1.3 µM. The figure for `NC(=O)c1ccc(N2CCN(C(c3ccc(F)cc3)c3ccc(F)cc3)CC2)c(NC(=O)Nc2ccc3c(c2)OCO3)c1` [Cpd 14, 3-[[(1,3-benzodioxol-5-ylamino)carbonyl]amino]-4-[4-[bis(4-fluorophenyl)methyl]-1-piperazinyl]-benzamide] is 3.1 µM; for `Cc1ccc(NC(=O)Nc2cc(C(N)=O)ccc2N2CCN(C(c3ccc(F)cc3)c3ccc(F)cc3)CC2)c(C)c1` [Cpd 15, 4-[4-[bis(4-fluorophenyl)methyl]-1-piperazinyl]-3-[[[(2,4-dimethylphenyl)amino]carbonyl]amino]-benzamide] it is 4.8 µM. Take `CC(NC(=O)Nc1cc(C(N)=O)ccc1N1CCN(C(c2ccc(F)cc2)c2ccc(F)cc2)CC1)c1ccccc1` (stereo not shown) [Cpd 16, 4-[4-[bis(4-fluorophenyl)methyl]-1-piperazinyl]-3-[[[(1-phenylethyl)amino]carbonyl]amino]-benzamide]: the IC50 stood at 6 µM. `COc1ccccc1NC(=O)Nc1cc(C(N)=O)ccc1N1CCN(C(c2ccc(F)cc2)c2ccc(F)cc2)CC1` [Cpd 17, 4-[4-[bis(4-fluorophenyl)methyl]-1-piperazinyl]-3-[[[(2-methoxyphenyl)amino]carbonyl]amino]-benzamide]: the IC50 stood at 2.8 µM. For `COc1ccc(NC(=O)Nc2cc(C(N)=O)ccc2N2CCN(C(c3ccc(F)cc3)c3ccc(F)cc3)CC2)c(OC)c1` [Cpd 18, 4-[4-[bis(4-fluorophenyl)methyl]-1-piperazinyl]-3-[[[(2,4-dimethoxyphenyl)amino]carbonyl]amino]-benzamide] the value was 4.6 µM; for `CN(C)c1ccc(NC(=O)Nc2cc(C(N)=O)ccc2N2CCN(C(c3ccc(F)cc3)c3ccc(F)cc3)CC2)cc1` [Cpd 19, 4-[4-[bis(4-fluorophenyl)methyl]-1-piperazinyl]-3-[[[[4-(dimethylamino)phenyl]amino]carbonyl]amino]-benzamide], 2.9 µM; for `COc1ccc(NC(=O)Nc2cc(C(N)=O)ccc2N2CCN(C(c3ccc(F)cc3)c3ccc(F)cc3)CC2)cc1` [Cpd 20, 4-[4-[bis(4-fluorophenyl)methyl]-1-piperazinyl]-3-[[[(4-methoxyphenyl)amino]carbonyl]amino]-benzamide], 4.3 µM. In the case of `NC(=O)c1ccc(N2CCN(C(c3ccc(F)cc3)c3ccc(F)cc3)CC2)c(NC(=S)Nc2ccccc2)c1` [Cpd 22, 4-[4-[bis(4-fluorophenyl)methyl]-1-piperazinyl]-3-[[(phenylamino)thioxomethyl]amino]-benzamide], the IC50 turned out to be 1.2 µM. The figure for `CN1CCN(C(=O)c2ccc(N3CCN(C(c4ccccc4)c4ccccc4)CC3)c(NC(=O)Nc3ccccc3)c2)CC1` [Cpd 23, N-[2-[4-(diphenylmethyl)-1-piperazinyl]-5-[(4-methyl-1-piperazinyl)carbonyl]phenyl]-N′-phenylurea] is 4.9 µM; for `O=C(Nc1ccccc1)Nc1cc(C(=O)N2CCCNCC2)ccc1N1CCN(C(c2ccccc2)c2ccccc2)CC1` [Cpd 24, N-[2-[4-(diphenylmethyl)-1-piperazinyl]-5-[(hexahydro-1H-1,4-diazepin-1-yl)carbonyl]phenyl]-N′-phenylurea] it is 0.87 µM. As to `O=C(Nc1cc(C(=O)N2CCCNCC2)ccc1N1CCN(C(c2ccccc2)c2ccccc2)CC1)NC1CCCCC1` [Cpd 25, N-cyclohexyl-N′-[2-[4-(diphenylmethyl)-1-piperazinyl]-5-[(hexahydro-1H-1,4-diazepin-1-yl)carbonyl]-phenyl]urea], the IC50 amounted to 2.6 µM.

`NCCNC(=O)c1ccc(N2CCN(C(c3ccccc3)c3ccccc3)CC2)c(NC(=O)Nc2ccccc2)c1` [Cpd 26, N-(2-aminoethyl)-4-[4-(diphenylmethyl)-1-piperazinyl]-3-[[(phenylamino)carbonyl]amino]-benzamide]: the IC50 worked out at 1.9 µM. The figure for `NCCNC(=O)c1ccc(N2CCN(C(c3ccccc3)c3ccccc3)CC2)c(NC(=O)NC2CCCCC2)c1` [Cpd 27, N-(2-aminoethyl)-3-[[(cyclohexylamino)carbonyl]amino]-4-[4-(diphenylmethyl)-1-piperazinyl]-benzamide] is 2.8 µM.
